Results: US20250144094A1 (Erasca, Inc., priority 2021, published 2025)

What follows are compounds tested against Recombinant human ULK1 (1-649) (Homo sapiens (Human), UniProt O75385) (assay: ULK1 ADP Glo kinase activity assay, new method (ULKtide peptide substrate)). Conditions: 25° C., 40 minutes, read-out: ULK1 biochemical IC50.
How it was run: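 Kinase activity was read as ADP production (ADP-Glo, luminescence 30 min after detection reagent) following a 40-min, 25 °C reaction of Sf9-expressed GST-ULK1 (1-649) with ULKtide substrate and ATP. Compounds ran as 12-point series starting at 10 μM; four-parameter curve fitting versus DMSO wells gave IC50.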

Sequence of Recombinant human ULK1 (1-649) (O75385 1-649): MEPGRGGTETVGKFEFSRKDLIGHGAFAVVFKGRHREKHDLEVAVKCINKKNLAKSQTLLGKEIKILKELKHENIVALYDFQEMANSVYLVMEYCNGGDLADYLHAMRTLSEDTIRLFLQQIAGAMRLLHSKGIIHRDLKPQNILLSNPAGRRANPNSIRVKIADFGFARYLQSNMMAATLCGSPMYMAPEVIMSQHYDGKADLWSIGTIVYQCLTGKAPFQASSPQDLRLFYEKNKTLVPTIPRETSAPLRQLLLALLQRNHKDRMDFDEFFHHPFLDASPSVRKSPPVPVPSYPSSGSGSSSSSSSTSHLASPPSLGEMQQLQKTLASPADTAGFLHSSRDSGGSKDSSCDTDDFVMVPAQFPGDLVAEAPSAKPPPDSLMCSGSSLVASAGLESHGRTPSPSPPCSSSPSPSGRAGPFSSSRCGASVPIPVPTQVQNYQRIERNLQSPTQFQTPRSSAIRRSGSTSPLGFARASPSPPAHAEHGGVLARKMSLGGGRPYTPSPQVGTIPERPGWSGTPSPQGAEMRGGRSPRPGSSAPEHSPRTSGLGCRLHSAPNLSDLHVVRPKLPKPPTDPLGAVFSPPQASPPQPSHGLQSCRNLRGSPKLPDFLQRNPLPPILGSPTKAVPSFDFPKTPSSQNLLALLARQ

Question: How did the IC50 turn out when `O=C1c2sc(-c3nc(Nc4cc5c(cc4C4CC4)CN(CC4CC4)CC5)ncc3C(F)(F)F)cc2S(=O)(=O)CCN1C1CC1` [Example 235, 4-cyclopropyl-7-(2-((7-cyclopropyl-2-(cyclopropylmethyl)-1,2,3,4-tetrahydroisoquinolin-6-yl)amino)-5-(trifluoromethyl)pyrimidin-4-yl)-3,4-dihydrothieno[2,3-f][1,4]thiazepin-5(2H)-one 1,1-dioxide] was run?
Answer: Its IC50 is at most 5 nM.

Question: `CN1CCS(=O)(=O)c2cc(-c3nc(Nc4cc5c(cc4C4CC4)CN(CCF)CC5)ncc3C(F)(F)F)sc2C1=O` [Example 236, 7-(2-((7-cyclopropyl-2-(2-fluoroethyl)-1,2,3,4-tetrahydroisoquinolin-6-yl)amino)-5-(trifluoromethyl)pyrimidin-4-yl)-4-methyl-3,4-dihydrothieno[2,3-f][1,4]thiazepin-5(2H)-one 1,1-dioxide] was tested. Which IC50 did it give?
Answer: Its IC50 is at most 5 nM.

Question: With `CN1CCS(=O)(=O)c2cc(-c3nc(Nc4cc5c(cc4Cl)CN(CCF)CC5)ncc3C(F)(F)F)sc2C1=O` [Example 237, 7-(2-((7-chloro-2-(2-fluoroethyl)-1,2,3,4-tetrahydroisoquinolin-6-yl)amino)-5-(trifluoromethyl)pyrimidin-4-yl)-4-methyl-3,4-dihydrothieno[2,3-f][1,4]thiazepin-5(2H)-one 1,1-dioxide] as the compound, how does the IC50 read?
Answer: The IC50 was at most 5 nM.

Question: How did the IC50 turn out when `CN1CCS(=O)(=O)c2cc(-c3nc(Nc4ccc(N5CCNCC5)cc4C4CC4)ncc3C(F)(F)F)sc2C1=O` [Example 238, 7-(2-((2-cyclopropyl-4-(piperazin-1-yl)phenyl)amino)-5-(trifluoromethyl)pyrimidin-4-yl)-4-methyl-3,4-dihydrothieno[2,3-f][1,4]thiazepin-5(2H)-one 1,1-dioxide] was run?
Answer: The IC50 was 5 to 10 nM.

Question: `O=C1c2sc(-c3nc(Nc4ccc(N5CCNCC5)cc4C4CC4)ncc3C(F)(F)F)cc2S(=O)(=O)CCN1C1CC1` [Example 239, 4-cyclopropyl-7-(2-((2-cyclopropyl-4-(piperazin-1-yl)phenyl)amino)-5-(trifluoromethyl)pyrimidin-4-yl)-3,4-dihydrothieno[2,3-f][1,4]thiazepin-5(2H)-one 1,1-dioxide] was tested. Which IC50 did it give?
Answer: The IC50 was at most 5 nM.

Question: How did the IC50 turn out when `O=C1c2sc(-c3nc(Nc4ccc(C5CCNCC5)cc4C4CC4)ncc3C(F)(F)F)cc2S(=O)(=O)CCN1C1CC1` [Example 240, 4-cyclopropyl-7-(2-((2-cyclopropyl-4-(piperidin-4-yl)phenyl)amino)-5-(trifluoromethyl)pyrimidin-4-yl)-3,4-dihydrothieno[2,3-f][1,4]thiazepin-5(2H)-one 1,1-dioxide] was run?
Answer: The IC50 was at most 5 nM.

Question: With `O=C1c2sc(-c3nc(Nc4ccc(C5CCN(CC6CC6)CC5)cc4C4CC4)ncc3C(F)(F)F)cc2S(=O)(=O)CCN1C1CC1` [Example 241, 4-cyclopropyl-7-(2-((2-cyclopropyl-4-(1-(cyclopropylmethyl)piperidin-4-yl)phenyl)amino)-5-(trifluoromethyl)pyrimidin-4-yl)-3,4-dihydrothieno[2,3-f][1,4]thiazepin-5(2H)-one 1,1-dioxide] as the compound, how does the IC50 read?
Answer: The IC50 was at most 5 nM.

Question: With `CCc1cc2c(cc1Nc1ncc(C(F)(F)F)c(-c3cc4c(s3)C(=O)N(C3CC3)CCS4(=O)=O)n1)CCN(CC1CC1)C2` [Example 242, 4-cyclopropyl-7-(2-((2-(cyclopropylmethyl)-7-ethyl-1,2,3,4-tetrahydroisoquinolin-6-yl)amino)-5-(trifluoromethyl)pyrimidin-4-yl)-3,4-dihydrothieno[2,3-f][1,4]thiazepin-5(2H)-one 1,1-dioxide] as the compound, how does the IC50 read?
Answer: Its IC50 is at most 5 nM.

Question: How did the IC50 turn out when `CCc1cc2c(cc1Nc1ncc(C(F)(F)F)c(-c3cc4c(s3)C(=O)N(C3CC3)CCS4(=O)=O)n1)CCN(CCF)C2` [Example 243] was run?
Answer: Its IC50 is at most 5 nM.

Question: With `CCN1CCc2cc(Nc3ncc(C(F)(F)F)c(-c4cc5c(s4)C(=O)N(C4COC4)CCS5(=O)=O)n3)c(C3CC3)cc2C1` [Example 244, 7-(2-((7-cyclopropyl-2-ethyl-1,2,3,4-tetrahydroisoquinolin-6-yl)amino)-5-(trifluoromethyl)pyrimidin-4-yl)-4-(oxetan-3-yl)-3,4-dihydrothieno[2,3-f][1,4]thiazepin-5(2H)-one 1,1-dioxide] as the compound, how does the IC50 read?
Answer: Its IC50 is at most 5 nM.

Question: With `CN1CCS(=O)(=O)c2cc(-c3nc(Nc4cc5c(cc4Cl)CN(CC4CC4)CC5)ncc3C(F)(F)F)sc2C1=O` [Example 246, 7-(2-((7-chloro-2-(cyclopropylmethyl)-1,2,3,4-tetrahydroisoquinolin-6-yl)amino)-5-(trifluoromethyl)pyrimidin-4-yl)-4-methyl-3,4-dihydrothieno[2,3-f][1,4]thiazepin-5(2H)-one 1,1-dioxide] as the compound, how does the IC50 read?
Answer: Its IC50 is at most 5 nM.

Question: With `CSc1cc2c(cc1Nc1ncc(C(F)(F)F)c(-c3cc4c(s3)C(=O)N(C3CC3)CCS4(=O)=O)n1)CCNC2` [Example 247, 4-cyclopropyl-7-(2-((7-(methylthio)-1,2,3,4-tetrahydroisoquinolin-6-yl)amino)-5-(trifluoromethyl)pyrimidin-4-yl)-3,4-dihydrothieno[2,3-f][1,4]thiazepin-5(2H)-one 1,1-dioxide] as the compound, how does the IC50 read?
Answer: Its IC50 is at most 5 nM.

Question: How did the IC50 turn out when `CC(C)N1CCc2cc(Nc3ncc(C(F)(F)F)c(-c4cc5c(s4)C(=O)N(C4CC4)CCS5(=O)=O)n3)c(C3CC3)cc2C1` [Example 248, 4-cyclopropyl-7-(2-((7-cyclopropyl-2-isopropyl-1,2,3,4-tetrahydroisoquinolin-6-yl)amino)-5-(trifluoromethyl)pyrimidin-4-yl)-3,4-dihydrothieno[2,3-f][1,4]thiazepin-5(2H)-one 1,1-dioxide] was run?
Answer: The IC50 was at most 5 nM.

Question: How did the IC50 turn out when `O=C1c2sc(-c3nc(Nc4cc5c(cc4C4CC4)CN(CCF)CC5)ncc3C(F)(F)F)cc2S(=O)(=O)CCN1C1CC1` [Example 249, 4-cyclopropyl-7-(2-((7-cyclopropyl-2-(2-fluoroethyl)-1,2,3,4-tetrahydroisoquinolin-6-yl)amino)-5-(trifluoromethyl)pyrimidin-4-yl)-3,4-dihydrothieno[2,3-f][1,4]thiazepin-5(2H)-one 1,1-dioxide] was run?
Answer: The IC50 was at most 5 nM.

Question: `CN1CCS(=O)(=O)c2cc(-c3nc(Nc4ccc(N5CCN(CC6CC6)CC5)cc4C4CC4)ncc3C(F)(F)F)sc2C1=O` [Example 250, 7-(2-((2-cyclopropyl-4-(4-(cyclopropylmethyl)piperazin-1-yl)phenyl)amino)-5-(trifluoromethyl)pyrimidin-4-yl)-4-methyl-3,4-dihydrothieno[2,3-f][1,4]thiazepin-5(2H)-one 1,1-dioxide] was tested. Which IC50 did it give?
Answer: The IC50 was at most 5 nM.

Question: With `CN1CCC(c2ccc(Nc3ncc(C(F)(F)F)c(-c4cc5c(s4)C(=O)N(C4CC4)CCS5(=O)=O)n3)c(C3CC3)c2)CC1` [Example 252, 4-cyclopropyl-7-(2-((2-cyclopropyl-4-(1-methylpiperidin-4-yl)phenyl)amino)-5-(trifluoromethyl)pyrimidin-4-yl)-3,4-dihydrothieno[2,3-f][1,4]thiazepin-5(2H)-one 1,1-dioxide] as the compound, how does the IC50 read?
Answer: The IC50 was at most 5 nM.

Question: How did the IC50 turn out when `CCN1CCC(c2ccc(Nc3ncc(C(F)(F)F)c(-c4cc5c(s4)C(=O)N(C4CC4)CCS5(=O)=O)n3)c(C3CC3)c2)CC1` [Example 253, 4-cyclopropyl-7-(2-((2-cyclopropyl-4-(1-ethylpiperidin-4-yl)phenyl)amino)-5-(trifluoromethyl)pyrimidin-4-yl)-3,4-dihydrothieno[2,3-f][1,4]thiazepin-5(2H)-one 1,1-dioxide] was run?
Answer: The IC50 was at most 5 nM.

Question: For `O=C1c2sc(-c3nc(Nc4ccc(C5CCN(CC6COC6)CC5)cc4C4CC4)ncc3C(F)(F)F)cc2S(=O)(=O)CCN1C1CC1` [Example 254, 4-cyclopropyl-7-(2-((2-cyclopropyl-4-(1-(oxetan-3-ylmethyl)piperidin-4-yl)phenyl)amino)-5-(trifluoromethyl)pyrimidin-4-yl)-3,4-dihydrothieno[2,3-f][1,4]thiazepin-5(2H)-one 1,1-dioxide], which IC50 is on record?
Answer: Its IC50 is at most 5 nM.

Question: How did the IC50 turn out when `CCN1CCN(c2ccc(Nc3ncc(C(F)(F)F)c(-c4cc5c(s4)C(=O)N(C4CC4)CCS5(=O)=O)n3)c(C3CC3)c2)CC1` [Example 255, 4-cyclopropyl-7-(2-((2-cyclopropyl-4-(4-ethylpiperazin-1-yl)phenyl)amino)-5-(trifluoromethyl)pyrimidin-4-yl)-3,4-dihydrothieno[2,3-f][1,4]thiazepin-5(2H)-one 1,1-dioxide] was run?
Answer: Its IC50 is at most 5 nM.

Question: For `O=C1c2sc(-c3nc(Nc4cc5c(cc4C4CC4)CN(CC4CC4)CC5)ncc3C(F)(F)F)cc2S(=O)(=O)CCN1C1COC1` [Example 256, 7-(2-((7-cyclopropyl-2-(cyclopropylmethyl)-1,2,3,4-tetrahydroisoquinolin-6-yl)amino)-5-(trifluoromethyl)pyrimidin-4-yl)-4-(oxetan-3-yl)-3,4-dihydrothieno[2,3-f][1,4]thiazepin-5(2H)-one 1,1-dioxide], which IC50 is on record?
Answer: Its IC50 is at most 5 nM.

Question: `O=C1c2sc(-c3nc(Nc4cc5c(cc4C4CC4)CN(CC4COC4)CC5)ncc3C(F)(F)F)cc2S(=O)(=O)CCN1C1COC1` [Example 257, 7-(2-((7-cyclopropyl-2-(oxetan-3-ylmethyl)-1,2,3,4-tetrahydroisoquinolin-6-yl)amino)-5-(trifluoromethyl)pyrimidin-4-yl)-4-(oxetan-3-yl)-3,4-dihydrothieno[2,3-f][1,4]thiazepin-5(2H)-one 1,1-dioxide] was tested. Which IC50 did it give?
Answer: Its IC50 is at most 5 nM.

Question: How did the IC50 turn out when `CCc1cc2c(cc1Nc1ncc(C(F)(F)F)c(-c3cc4c(s3)C(=O)N(CC(F)(F)F)CCS4(=O)=O)n1)CNCC2` [Example 258, 7-(2-((6-ethyl-1,2,3,4-tetrahydroisoquinolin-7-yl)amino)-5-(trifluoromethyl)pyrimidin-4-yl)-4-(2,2,2-trifluoroethyl)-3,4-dihydrothieno[2,3-f][1,4]thiazepin-5(2H)-one 1,1-dioxide] was run?
Answer: The IC50 was at most 5 nM.

Question: With `Cc1cnc(Nc2cc3c(cc2Cl)CNCC3)nc1-c1cc2c(s1)C(=O)N(C)CCS2(=O)=O` [Example 259, 7-(2-((7-chloro-1,2,3,4-tetrahydroisoquinolin-6-yl)amino)-5-methylpyrimidin-4-yl)-4-methyl-3,4-dihydrothieno[2,3-f][1,4]thiazepin-5(2H)-one 1,1-dioxide] as the compound, how does the IC50 read?
Answer: Its IC50 is at most 5 nM.
